Reference: patent US20110039721A1, “METHOD FOR PREDICTION ABOUT CARCINOGENICITY OF SUBSTANCE IN RODENT” (Chemicals Evaluation and Research Institute, priority 2007, published 2011)
Structures can show the parent of a compound that is named as a salt. Where two headings read alike, the source gives them in different places.

Assays:
liver = settings: in vivo; cited from earlier work
rodent = settings: cited from earlier work
[1] = tested on: mRNA expressed from the genes (A) to (D) in rat liver; experiment: Behavior of genes (mRNA expression level, oligo-DNA microarray) in rat liver after 28-day oral administration; assay type: in vivo
Experimental: A test solution was prepared by dissolving each of the carcinogens and the non-carcinogens shown in Tables 2 to 6 in the corresponding solvent shown in Tables 2 to 6. Each of the thus prepared test solutions and the solvents used for the preparation was administered by oral gavage to rats in each group. As the rats, male rats (F344 SPF rats) at 5 weeks of age obtained from Charles River Laboratories Japan, Inc. were used. The animals were divided into groups, each containing four individuals. The volume of the solvent administered to the vehicle control group was set to the same volume as that of the test solution administered to the carcinogen administration group or the non-carcinogen administration group. The administration of the test solution or the solvent was performed once daily for 28 days. Apiece was excised from the liver of each of the rats after a lapse of 28 days from the initiation of the administration, and the total RNA was extracted and purified.
The expression level of mRNA was compared between each of the chemical substance administration groups and the corresponding vehicle control group, and genes that satisfy the requirements described in (A) to (D) were selected, respectively.
The case where the expression level of mRNA in the carcinogen administration group or the non-carcinogen administration group is 1.5 times or more or 1/1.5 or less of the expression level of the corresponding mRNA expressed in the control group was determined to be significant. In this connection, the determination as to whether or not the change is significant was performed by taking into consideration the direction of increase or decrease in the expression level. In the case where the direction of increase or decrease is different as compared with the case where another carcinogen was administered, the change was determined to be not significant.

[2] = gene group (A), Unigene No. Rn.167075
[3] = gene group (C), Unigene No. Rn.120914

In the case of `CC(O)CCl` (centres unmarked) [TS079, 1-Chloro-2-propanol], the Liver carcinogenicity (liver) is given as “Cr−”, the Carcinogenicity (rodent; in vivo) is given as “C−” and the “Behavior of gene caused by administration of chemical substance, Gene No. 4846” value ([1]; gene group (A), Unigene No. Rn.144554) is given as “−”. For the same compound, the “Behavior of gene caused by administration of chemical substance, Gene No. 2026” value [1, 2] was “−”, the “Behavior of gene caused by administration of chemical substance, Gene No. 4218” value [1, 2] was “−” and the “Behavior of gene caused by administration of chemical substance, Gene No. 6182” value ([1]; gene group (A), Unigene No. Rn.5834) was “+”. The “Behavior of gene caused by administration of chemical substance, Gene No. 5600” value ([1]; gene group (A), Unigene No. Rn.9836) was “−”, the “Behavior of gene caused by administration of chemical substance, Gene No. 1494” value ([1]; gene group (B), Unigene No. Rn.1430) was “−” and the “Behavior of gene caused by administration of chemical substance, Gene No. 2045” value ([1]; gene group (B), Unigene No. Rn.19329) was “+”. The “Behavior of gene caused by administration of chemical substance, Gene No. 2203” value ([1]; gene group (B), Unigene No. Rn.21240) was “+”, the “Behavior of gene caused by administration of chemical substance, Gene No. 533” value ([1]; gene group (C), Unigene No. Rn.106184) was “−” and the “Behavior of gene caused by administration of chemical substance, Gene No. 725” value ([1]; gene group (C), Unigene No. Rn.108075) was “−”. For the same compound, the “Behavior of gene caused by administration of chemical substance, Gene No. 1163” value ([1]; gene group (C), Unigene No. Rn.11766) was “−”, the “Behavior of gene caused by administration of chemical substance, Gene No. 4973” value ([1]; gene group (C), Unigene No. Rn.118529) was “−” and the “Behavior of gene caused by administration of chemical substance, Gene No. 4095” value ([1]; gene group (C), Unigene No. Rn.119024) was “−”. The “Behavior of gene caused by administration of chemical substance, Gene No. 1334” value [1, 3] was “−”, the “Behavior of gene caused by administration of chemical substance, Gene No. 6620” value [1, 3] was “−” and the “Behavior of gene caused by administration of chemical substance, Gene No. 6303” value ([1]; gene group (C), Unigene No. Rn.123063) was “−”. The “Behavior of gene caused by administration of chemical substance, Gene No. 5878” value ([1]; gene group (C), Unigene No. Rn.143213) was “−”, the “Behavior of gene caused by administration of chemical substance, Gene No. 1131” value ([1]; gene group (C), Unigene No. Rn.144946) was “−” and the “Behavior of gene caused by administration of chemical substance, Gene No. 1562” value ([1]; gene group (C), Unigene No. Rn.14744) was “−”. For the same compound, the “Behavior of gene caused by administration of chemical substance, Gene No. 1741” value ([1]; gene group (C), Unigene No. Rn.1647) was “−”, the “Behavior of gene caused by administration of chemical substance, Gene No. 893” value ([1]; gene group (C), Unigene No. Rn.164817) was “−” and the “Behavior of gene caused by administration of chemical substance, Gene No. 6026” value ([1]; gene group (C), Unigene No. Rn.167685) was “−”. For the same compound, the “Behavior of gene caused by administration of chemical substance, Gene No. 154” value ([1]; gene group (C), Unigene No. Rn.185941) was “−”, the “Behavior of gene caused by administration of chemical substance, Gene No. 1993” value ([1]; gene group (C), Unigene No. Rn.18728) was “−” and the “Behavior of gene caused by administration of chemical substance, Gene No. 813” value ([1]; gene group (C), Unigene No. Rn.201760) was “−”. The “Behavior of gene caused by administration of chemical substance, Gene No. 2494” value ([1]; gene group (C), Unigene No. Rn.23969) was “−”, the “Behavior of gene caused by administration of chemical substance, Gene No. 2546” value ([1]; gene group (C), Unigene No. Rn.24561) was “−” and the “Behavior of gene caused by administration of chemical substance, Gene No. 3776” value ([1]; gene group (C), Unigene No. Rn.43232) was “−”. The “Behavior of gene caused by administration of chemical substance, Gene No. 3929” value ([1]; gene group (C), Unigene No. Rn.4620) was “−”, the “Behavior of gene caused by administration of chemical substance, Gene No. 1119” value ([1]; gene group (C), Unigene No. Rn.9757) was “−” and the “Behavior of gene caused by administration of chemical substance, Gene No. 6742” value ([1]; gene group (C), Unigene No. Rn.9779) was “−”. For the same compound, the “Behavior of gene caused by administration of chemical substance, Gene No. 5634” value ([1]; gene group (C), Unigene No. Rn.9862) was “−” and the “Behavior of gene caused by administration of chemical substance, Gene No. 5726” value ([1]; gene group (D), Unigene No. Rn.9939) was “+”.

In the case of `CN(C)CCN(Cc1cccs1)c1ccccn1` [TS053, Methapyrilene HCl], the Liver carcinogenicity (liver) is listed as “Cr+” and the Carcinogenicity (rodent; in vivo) is listed as “C+”.

For `O=[N+]([O-])c1ccc2ccc3cccc4ccc1c2c34` [TS064, 1-Nitropyrene], the Carcinogenicity (rodent; classification C+/C−) is listed as “C+”, the “Behavior of gene caused by administration of chemical substance” value ([1]; Gene No. 154, Rn.185941, group (C)) is listed as “−” and the “Behavior of gene caused by administration of chemical substance” value ([1]; Gene No. 533, Rn.106184, group (C)) is listed as “−”. The “Behavior of gene caused by administration of chemical substance” value ([1]; Gene No. 725, Rn.108075, group (C)) was “−”, the “Behavior of gene caused by administration of chemical substance” value ([1]; Gene No. 813, Rn.201760, group (C)) was “−” and the “Behavior of gene caused by administration of chemical substance” value ([1]; Gene No. 893, Rn.164817, group (C)) was “−”. The “Behavior of gene caused by administration of chemical substance” value ([1]; Gene No. 1119, Rn.9757, group (C)) was “−”, the “Behavior of gene caused by administration of chemical substance” value ([1]; Gene No. 1131, Rn.144946, group (C)) was “−” and the “Behavior of gene caused by administration of chemical substance” value ([1]; Gene No. 1163, Rn.11766, group (C)) was “−”. The “Behavior of gene caused by administration of chemical substance” value ([1]; Gene No. 1334, Rn.120914, group (C)) was “−”, the “Behavior of gene caused by administration of chemical substance” value ([1]; Gene No. 1494, Rn.1430, group (B)) was “−” and the “Behavior of gene caused by administration of chemical substance” value ([1]; Gene No. 1562, Rn.14744, group (C)) was “−”. For the same compound, the “Behavior of gene caused by administration of chemical substance” value ([1]; Gene No. 1741, Rn.1647, group (C)) was “−”, the “Behavior of gene caused by administration of chemical substance” value ([1]; Gene No. 1993, Rn.18728, group (C)) was “−” and the “Behavior of gene caused by administration of chemical substance” value ([1]; Gene No. 2026, Rn.167075, group (A)) was “−”. For the same compound, the “Behavior of gene caused by administration of chemical substance” value ([1]; Gene No. 2045, Rn.19329, group (B)) was “−”, the “Behavior of gene caused by administration of chemical substance” value ([1]; Gene No. 2203, Rn.21240, group (B)) was “+” and the “Behavior of gene caused by administration of chemical substance” value ([1]; Gene No. 2494, Rn.23969, group (C)) was “−”. The “Behavior of gene caused by administration of chemical substance” value ([1]; Gene No. 2546, Rn.24561, group (C)) was “−”, the “Behavior of gene caused by administration of chemical substance” value ([1]; Gene No. 3776, Rn.43232, group (C)) was “−” and the “Behavior of gene caused by administration of chemical substance” value ([1]; Gene No. 3929, Rn.4620, group (C)) was “−”. For the same compound, the “Behavior of gene caused by administration of chemical substance” value ([1]; Gene No. 4095, Rn.119024, group (C)) was “−”, the “Behavior of gene caused by administration of chemical substance” value ([1]; Gene No. 4218, Rn.167075, group (A)) was “−” and the “Behavior of gene caused by administration of chemical substance” value ([1]; Gene No. 4846, Rn.144554, group (A)) was “−”. For the same compound, the “Behavior of gene caused by administration of chemical substance” value ([1]; Gene No. 4973, Rn.118529, group (C)) was “−”, the “Behavior of gene caused by administration of chemical substance” value ([1]; Gene No. 5600, Rn.9836, group (A)) was “−” and the “Behavior of gene caused by administration of chemical substance” value ([1]; Gene No. 5634, Rn.9862, group (C)) was “−”. The “Behavior of gene caused by administration of chemical substance” value ([1]; Gene No. 5726, Rn.9939, group (D)) was “−”, the “Behavior of gene caused by administration of chemical substance” value ([1]; Gene No. 5878, Rn.143213, group (C)) was “−” and the “Behavior of gene caused by administration of chemical substance” value ([1]; Gene No. 6026, Rn.167685, group (C)) was “−”. The “Behavior of gene caused by administration of chemical substance” value ([1]; Gene No. 6182, Rn.5834, group (A)) was “−”, the “Behavior of gene caused by administration of chemical substance” value ([1]; Gene No. 6303, Rn.123063, group (C)) was “−” and the “Behavior of gene caused by administration of chemical substance” value ([1]; Gene No. 6620, Rn.120914, group (C)) was “−”. For the same compound, the “Behavior of gene caused by administration of chemical substance” value ([1]; Gene No. 6742, Rn.9779, group (C)) was “−”.
